From patent US20240376163A1, “PEPTIDE FOR INHIBITING CALCINEURIN AND USE THEREOF” (Seoul National University R&DB Foundation, priority 2023, published 2024)

System: Jurkat T cells
Test: mRNA sequencing of activated Jurkat T cells
Type: cell-based, human

Sequence: PEITVTPPTP [CABIN1-L-1-2]
- GPR108 FPKM (P+I): 37.394 FPKM
- GPR183 FPKM (P+I): 4.735 FPKM
- GRAP2 FPKM (P+I): 11.197 FPKM
- GRK5 FPKM (P+I): 8.975 FPKM
- GZMH FPKM (P+I): 13.893 FPKM
- HAPLN3 FPKM (P+I): 58.345 FPKM
- HDC FPKM (P+I): 23.209 FPKM
- HHIP FPKM (P+I): 6.793 FPKM
- HHIP-AS1 FPKM (P+I): 29.854 FPKM
- HIVEP2 FPKM (P+I): 9.184 FPKM
- HSP90B1 FPKM (P+I): 910.415 FPKM
- HSP90B2P FPKM (P+I): 9.619 FPKM
- HSPA5 FPKM (P+I): 449.173 FPKM
- ICAM1 FPKM (P+I): 12.914 FPKM
- ID2 FPKM (P+I): 15.335 FPKM
- IER2 FPKM (P+I): 126.884 FPKM
- IER3 FPKM (P+I): 26.899 FPKM
- IFFO2 FPKM (P+I): 3.163 FPKM
- IFIH1 FPKM (P+I): 12.37 FPKM
- IFNG FPKM (P+I): 8.858 FPKM
- IGLL1 FPKM (P+I): 3.244 FPKM
- IGSF9B FPKM (P+I): 8.992 FPKM
- IL2RA FPKM (P+I): 10.904 FPKM
- IL3 FPKM (P+I): 6.298 FPKM
- IL4I1 FPKM (P+I): 7.279 FPKM
- IL16 FPKM (P+I): 8.304 FPKM
- IL22 FPKM (P+I): 3.136 FPKM
- IL23A FPKM (P+I): 17.874 FPKM
- IMPA2 FPKM (P+I): 2.882 FPKM
- IRF8 FPKM (P+I): 1.914 FPKM
- IRF9 FPKM (P+I): 39.375 FPKM
- ISM1 FPKM (P+I): 3.737 FPKM
- JAK3 FPKM (P+I): 8.871 FPKM
- JUN FPKM (P+I): 3.58 FPKM
- JUNB FPKM (P+I): 56.126 FPKM
- KBTBD11 FPKM (P+I): 2.772 FPKM
- KCNK5 FPKM (P+I): 4.904 FPKM
- KCTD11 FPKM (P+I): 2.303 FPKM
- KIAA0922 FPKM (P+I): 12.911 FPKM
- KIF1B FPKM (P+I): 13.254 FPKM
- KIF3B FPKM (P+I): 14.583 FPKM
- KLF2 FPKM (P+I): 1.375 FPKM
- KSR1 FPKM (P+I): 5.998 FPKM
- LAIR2 FPKM (P+I): 3.695 FPKM
- LAMP3 FPKM (P+I): 9.828 FPKM
- LAX1 FPKM (P+I): 7.578 FPKM
- LDLRAP1 FPKM (P+I): 0.878 FPKM
- LIME1 FPKM (P+I): 11.879 FPKM
- LINC00152 FPKM (P+I): 31.801 FPKM
- LINC00426 FPKM (P+I): 0.675 FPKM
- LINC00528 FPKM (P+I): 5.927 FPKM
- LINC00539 FPKM (P+I): 2.351 FPKM
- LINC00977 FPKM (P+I): 0.266 FPKM
- LOC729603 FPKM (P+I): 3.329 FPKM
- LRRC8B FPKM (P+I): 4.298 FPKM
- LRRC45 FPKM (P+I): 4.264 FPKM
- LYPD3 FPKM (P+I): 2.662 FPKM
- MAP2K3 FPKM (P+I): 43.237 FPKM
- MAP2K6 FPKM (P+I): 0.955 FPKM
- MBOAT2 FPKM (P+I): 3.202 FPKM
- MCM4 FPKM (P+I): 27.291 FPKM
- MCM5 FPKM (P+I): 33.895 FPKM
- METRNL FPKM (P+I): 7.881 FPKM
- MIR221 FPKM (P+I): 10.092 FPKM
- MIR4435-1HG FPKM (P+I): 16.303 FPKM
- MIR6891 FPKM (P+I): 31.815 FPKM
- MMP10 FPKM (P+I): 22.372 FPKM
- MRPL39 FPKM (P+I): 188.834 FPKM
- MYO1D FPKM (P+I): 5.995 FPKM
- MYO1G FPKM (P+I): 65.452 FPKM
- MYO7B FPKM (P+I): 12.661 FPKM
- NAMPT FPKM (P+I): 54.272 FPKM
- NDFIP1 FPKM (P+I): 24.432 FPKM
- NDFIP2 FPKM (P+I): 12.598 FPKM
- NDST3 FPKM (P+I): 5.621 FPKM
- NEIL3 FPKM (P+I): 8.336 FPKM
- NEXN FPKM (P+I): 5.587 FPKM
- NFE2L3 FPKM (P+I): 28.495 FPKM
- NFKBIA FPKM (P+I): 70.837 FPKM
- NFKBID FPKM (P+I): 8.294 FPKM
- NFKBIE FPKM (P+I): 11.793 FPKM
- NINJ1 FPKM (P+I): 54.452 FPKM
- NKD2 FPKM (P+I): 3.105 FPKM
- NKX3-1 FPKM (P+I): 8.412 FPKM
- NLRC5 FPKM (P+I): 37.7 FPKM
- NPY FPKM (P+I): 4.799 FPKM
- NR4A1 FPKM (P+I): 34.85 FPKM
- NR4A2 FPKM (P+I): 0.356 FPKM
- NRROS FPKM (P+I): 26.059 FPKM
- NT5M FPKM (P+I): 1.643 FPKM
- NXN FPKM (P+I): 1.571 FPKM
- OAS3 FPKM (P+I): 18.24 FPKM
- OSBPL3 FPKM (P+I): 23.298 FPKM
- PARP9 FPKM (P+I): 84.386 FPKM
- PARP14 FPKM (P+I): 72.911 FPKM
- PCBP3 FPKM (P+I): 4.642 FPKM
- PDE3B FPKM (P+I): 5.194 FPKM
- PEAK1 FPKM (P+I): 9.633 FPKM
- PELI1 FPKM (P+I): 8.465 FPKM
- PHEX FPKM (P+I): 0.786 FPKM
- PHF7 FPKM (P+I): 3.075 FPKM
- PHLDA1 FPKM (P+I): 52.893 FPKM
- PIDD1 FPKM (P+I): 4.471 FPKM
- PIM3 FPKM (P+I): 72.895 FPKM
- PKIA FPKM (P+I): 18.138 FPKM
- PLAU FPKM (P+I): 82.517 FPKM
- PLEKHO1 FPKM (P+I): 36.376 FPKM
- PLK3 FPKM (P+I): 7.036 FPKM
- PMAIP1 FPKM (P+I): 37.469 FPKM
- PMEPA1 FPKM (P+I): 2.393 FPKM
- PODXL FPKM (P+I): 1.509 FPKM
- POU3F2 FPKM (P+I): 0.696 FPKM
- PPFIBP1 FPKM (P+I): 12.117 FPKM
- PPM1H FPKM (P+I): 4.178 FPKM
- PRKCA FPKM (P+I): 11.132 FPKM
- PTK2 FPKM (P+I): 13.391 FPKM
- PTPN22 FPKM (P+I): 5.119 FPKM
- PTPRE FPKM (P+I): 14.28 FPKM
- PWWP2B FPKM (P+I): 3.446 FPKM
- PXMP2 FPKM (P+I): 7.334 FPKM
- RAG1 FPKM (P+I): 0.265 FPKM
- RAG2 FPKM (P+I): 0.385 FPKM
- RAP1GAP2 FPKM (P+I): 0.285 FPKM
- RAP1GAP FPKM (P+I): 1.799 FPKM
- RDH10 FPKM (P+I): 5.524 FPKM
- REL FPKM (P+I): 5.699 FPKM
- RELB FPKM (P+I): 40.689 FPKM
- RGS3 FPKM (P+I): 2.303 FPKM
- RGS16 FPKM (P+I): 5.595 FPKM
- RMI1 FPKM (P+I): 8.198 FPKM
- RORB FPKM (P+I): 3.292 FPKM
- S1PR1 FPKM (P+I): 0.461 FPKM
- SAMD1 FPKM (P+I): 12.809 FPKM
- SECISBP2L FPKM (P+I): 12.883 FPKM
- SELPLG FPKM (P+I): 3.724 FPKM
- SEMA7A FPKM (P+I): 34.623 FPKM
- SERPINB2 FPKM (P+I): 14.103 FPKM
- SERPINE1 FPKM (P+I): 4.431 FPKM
- SH2B3 FPKM (P+I): 14.803 FPKM
- SH2D5 FPKM (P+I): 3.557 FPKM
- SH3BGRL3 FPKM (P+I): 351.357 FPKM
- SH3RF2 FPKM (P+I): 32.15 FPKM
- SHC4 FPKM (P+I): 0.686 FPKM
- SIT1 FPKM (P+I): 34.287 FPKM
- SIX6 FPKM (P+I): 19.444 FPKM
- SLC2A3 FPKM (P+I): 40.147 FPKM
- SLC2A4RG FPKM (P+I): 2.168 FPKM
- SLC7A5 FPKM (P+I): 226.44 FPKM
- SLC25A45 FPKM (P+I): 2.626 FPKM
- SLCO3A1 FPKM (P+I): 3.095 FPKM
- SLIT1 FPKM (P+I): 2.815 FPKM
- SMIM14 FPKM (P+I): 3.572 FPKM
- SOCS1 FPKM (P+I): 11.547 FPKM
- SOCS3 FPKM (P+I): 9.392 FPKM
- SOSTDC1 FPKM (P+I): 7.34 FPKM
- SPRY2 FPKM (P+I): 17.876 FPKM
- SREBF1 FPKM (P+I): 12.747 FPKM
- ST3GAL6-AS1 FPKM (P+I): 8.479 FPKM
- ST8SIA4 FPKM (P+I): 8.921 FPKM
- STARD4 FPKM (P+I): 16.105 FPKM
- STAT1 FPKM (P+I): 527.58 FPKM
- STAT5A FPKM (P+I): 3.055 FPKM
- STX11 FPKM (P+I): 2.972 FPKM
- SYTL1 FPKM (P+I): 12.555 FPKM
- TBC1D10C FPKM (P+I): 15.764 FPKM
- TBC1D20 FPKM (P+I): 18.427 FPKM
- TBX21 FPKM (P+I): 39.746 FPKM
- THY1 FPKM (P+I): 3.297 FPKM
- TIMP2 FPKM (P+I): 1.952 FPKM
- TM4SF1 FPKM (P+I): 0.907 FPKM
- TM7SF3 FPKM (P+I): 25.052 FPKM
- TMEM229B FPKM (P+I): 7.747 FPKM
- TMTC4 FPKM (P+I): 3.005 FPKM
- TNFRSF4 FPKM (P+I): 11.916 FPKM
- TNFRSF12A FPKM (P+I): 6.523 FPKM
- TNFRSF14 FPKM (P+I): 12.09 FPKM
- TNFSF9 FPKM (P+I): 2.651 FPKM
- TNRC6C FPKM (P+I): 4.485 FPKM
- TNS3 FPKM (P+I): 1.418 FPKM
- TRAF1 FPKM (P+I): 24.962 FPKM
- TRAT1 FPKM (P+I): 5.507 FPKM
- TRIM22 FPKM (P+I): 3.316 FPKM
- TSHR FPKM (P+I): 1.574 FPKM
- TSPAN2 FPKM (P+I): 2.119 FPKM
- TSPAN7 FPKM (P+I): 42.604 FPKM
- TTC28 FPKM (P+I): 1.926 FPKM
- TUBB2A FPKM (P+I): 10.912 FPKM
- TUBB3 FPKM (P+I): 5.423 FPKM
- UHRF1BP1L FPKM (P+I): 7.889 FPKM
- USP30-AS1 FPKM (P+I): 9.017 FPKM
- VANGL1 FPKM (P+I): 8.842 FPKM
- VASH2 FPKM (P+I): 4.245 FPKM
- VGF FPKM (P+I): 54.294 FPKM
- XAF1 FPKM (P+I): 16.914 FPKM
- XBP1 FPKM (P+I): 48.525 FPKM
- XYLB FPKM (P+I): 2.311 FPKM
- YBX2 FPKM (P+I): 1.594 FPKM
- ZC3H12A FPKM (P+I): 17.547 FPKM
- CD27 and CD70 expression (upon T-cell activation): inhibited CD27 and CD70
- RNA levels of representative T-cell activation markers (IL2, IL3, NFATC1, CCL4, CCL20, CXCL8) (upon T-cell activation): reduced RNA levels of representative T-cell activation markers
